From PMC12264943, “Identification of New Human P2X7 Antagonists Using Ligand- and Structure-Based Virtual Screening” (Journal of Chemical Information and Modeling, 2025)
“Also recorded” adds a separate entry of the source.

Experiments:
Type in all cases: cell-based
hP2X7 [1] = target: T1, hP2X7 (Homo sapiens, UniProt Q99572); experiment: Membrane Potential Red (MPR) dye assay, 1321 N1 cells stably transfected with hP2X7
T1 construct: expressed in transfected cells; host or cells: HEK-293, stably transfected (gift of E. Adinolfi's group, Ferrara University)
T1 sequence (Q99572 1-595): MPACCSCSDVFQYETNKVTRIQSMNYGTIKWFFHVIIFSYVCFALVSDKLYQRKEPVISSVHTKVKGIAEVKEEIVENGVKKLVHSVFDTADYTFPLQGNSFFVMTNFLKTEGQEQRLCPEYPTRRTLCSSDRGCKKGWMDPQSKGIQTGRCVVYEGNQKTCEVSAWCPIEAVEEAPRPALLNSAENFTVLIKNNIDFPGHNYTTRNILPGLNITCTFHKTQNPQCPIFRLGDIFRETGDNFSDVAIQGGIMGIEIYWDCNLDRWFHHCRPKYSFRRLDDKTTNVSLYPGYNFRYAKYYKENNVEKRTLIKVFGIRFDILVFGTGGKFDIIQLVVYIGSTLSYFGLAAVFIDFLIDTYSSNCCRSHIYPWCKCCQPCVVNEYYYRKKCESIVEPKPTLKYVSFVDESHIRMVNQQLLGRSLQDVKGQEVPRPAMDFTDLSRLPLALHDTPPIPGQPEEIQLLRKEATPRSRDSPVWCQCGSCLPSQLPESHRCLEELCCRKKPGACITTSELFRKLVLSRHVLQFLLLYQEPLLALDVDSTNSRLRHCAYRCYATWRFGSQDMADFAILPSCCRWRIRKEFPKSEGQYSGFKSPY
Experimental: (§1) Astrocytoma 1321 N1 (established by Dr. Gaia Pasqualetto) and HEK-293 (kindly gifted by E. Adinolfi’s group, Ferrara University) both stably transfected with hP2X7, were used to assess the activity of the small molecules selected from the VS. Cells were maintained in DMEM:F12 (PanBiotech) supplemented with 10% FBS, 1% pen-strep, and 150 μg/mL G418 (PanBiotech).
(§2) Cells were plated as described for the YO-PRO 1 dye uptake assay. MPR dye (Molecular Devices) was prepared following the manufacturer’s protocol and diluted 1:10 in ECS-LD buffer. After washing with DPBS, cells were incubated with the dye for 30 min at 37 °C. Fluorescence changes (excitation: 525 nm; emission: 560 nm) were recorded using a Clariostar plate reader during ATP-induced membrane depolarization. Baseline fluorescence was recorded for 5 cycles, and ATP was added via an automated injector (10 μL). Membrane depolarization was quantified as the ratio of the maximal fluorescence change over baseline intensity (Δ(F max–F0)/F0)).
2 Initial screening assays to identify hit compounds. (A) The compounds were screened at 30 μM in the YO-PRO 1 dye uptake using 1321 N1 cells stably transfected with hP2X7. Compound activity was evaluated along a time of 20 min (75 s per cycle) after ATP addition (700 μM). The fluorescence intensity (FI) values of the first 10 cycles were considered for assessing their ability to inhibit hP2X7. Compound responses were normalized to the fluorescent signal recorded on 0.3% DMSO cells treated with 700 μM ATP of each plate. […] (B) Compounds screened at 10 μM using MPR using 1321 N1 cells stably transfected with hP2X7. The compound activity was evaluated for 5 min after ATP addition (15 s per cycle). The fluorescence intensity recorded in the first cycles (before reaching a plateau response) was considered for assessing the small molecule’s ability to inhibit hP2X7. Compound responses were normalized to the fluorescence signal recorded on 0.1% DMSO cells treated with 700 μM ATP of each plate. […] One-way ANOVA and Dunnet test were used for statistical analysis (****P < 0.0001), (*P < 0.02). […]

hP2X7 [2] = target: T1, hP2X7; experiment: Membrane potential assay with the blue dye (assay optimization); conditions: read-out: ATP EC50
Source text: The use of two or more complementary assays for assessing P2X7 modulator activity has been previously applied to help identify false positives as macropore formation is also linked to P2X2 and P2X4. , As P2X receptors are ion channels, they are probably best studied using electrophysiology techniques such as single-cell patch clamp, but these techniques can be laborious when testing libraries of compounds.

hP2X7 [3] = target: T1, hP2X7; experiment: Membrane Potential Red (MPR) dye assay, 1321 N1 cells stably transfected with hP2X7; conditions: compound 10 μM, 700 μM ATP
hP2X7 [4] = target: T1, hP2X7; experiment: Membrane Potential Red (MPR) dye assay, HEK-293 cells stably transfected with hP2X7; conditions: 10 μM, 1 mM ATP, hP2X7 HEK-293
Experimental: as §1, §2
4 Evaluation of compound 2 and 9 analogue activity using YO-PRO 1 and MPR assays. The activity of compound 2 (A and B) and 9 (C and D) analogues was evaluated in YO-PRO 1 (A and C) and MPR (B and D) assays. The compounds were tested at 10 μM and preincubated for either 20 (YO-PRO 1) or 30 min (MPR). The baseline was recorded for 5 cycles before ATP treatment (1 mM). Fluorescence was recorded for 25 (YO-PRO 1) or 5 min (MPR). The data were normalized by setting as 100% for the fluorescence measured from hP2X7 HEK-293 cells incubated with vehicle (0.1% DMSO) and treated with 1 mM ATP and 0% for the fluorescence recorded by the cells not treated with ATP. The data shown correspond to three independent biological replicates (3 technical replicates per experiment; error bars represent the SEM from the mean values of each biological replicate (n = 3)). The statistical analysis was performed with one-way Anova using Dunnett’s function (P**** < 0.0001; P*** < 0.0003; P** < 0.002; P* < 0.02).

For Nc1ncnc2c1ncn2[C@@H]1O[C@H](COP(=O)(O)OP(=O)(O)OP(=O)(O)O)[C@@H](O)[C@H]1O [ATP, reference compound], the EC50 (hP2X7 [1]; MPR assay, red dye, 1321 N1 hP2X7 cells, one biological replicate, read-out: ATP EC50) was 679 µM and the EC50 (hP2X7 [2]) was 2050 µM.

O=C(NCCc1ccccc1)NC(Cc1ccc2c(c1)OCO2)Cc1ccc2c(c1)OCO2 [Compound 2] was tested, and the “activity in MPR screen, hP2X7-induced membrane depolarization” value (hP2X7 [3]) was “active; also recorded: statistically inhibited”.

In the case of O=C(CSc1ccccc1C(=O)Nc1ccnn1Cc1cccnc1)Nc1ccc2c(c1)OCO2 [Compound 9], the “activity in MPR screen, hP2X7-induced membrane depolarization” value (hP2X7 [3]) is reported as “active; also recorded: statistically inhibited”, the “activity in MPR assay” value (hP2X7 [4]) is reported as “neither compound 9 nor its analogues significantly affected the membrane depolarization; also recorded: lack of inhibition” and the “statistically significant inhibition, % of control, initial MPR screen” value (hP2X7 [1]; compound 10 μM, 700 μM ATP) is reported as 65 % of control.
